Experimental data from a melting point compilation (Tetko et al.; mined from patent text by program, amines drawn as free bases though some values may be those of a salt).

| Compound | melting point [°C] |
| --- | --- |
| O=C1CC(C(=O)O)(c2ccccc2)C1 | 133 to 135 |
| CCCCCCCCCCc1ccc(NC(=O)c2cc(Cl)cc(Cl)c2O)cc1 | 90 to 91 |
| COc1c(O)c(C)c(CN2CCOCC2)c(O)c1OC | 127 to 130 |
| CCOC(=O)c1cnn(-c2ccc(F)cc2)c1 | 119 to 121 |
| CN1CCN(c2ccccc2CC2CCN(c3ccc(F)c(F)c3)C2=O)CC1 (stereo not drawn) | 130 to 131 |
| CCCN(CCC)[C@@H]1Cc2c(Br)ccc3c2[C@@H](C1)CN3C(=O)c1ccccc1 | 93 |
| CC(C)(C)OC(=O)CCc1ccnc(-c2nc(=O)c3ccc(Br)cc3s2)c1 | 173 to 174 |
| CCCN(C(=O)OC(C)(C)C)C1CC=C(c2c[nH]c3cc([N+](=O)[O-])ccc23)CC1 (stereo not drawn) | 214 to 216 |
| COc1cc(Nc2nccc(S(=O)(=O)c3ccccc3)n2)cc(OC)c1OC | 110 |
| CCCOc1ccc(S(=O)(=O)N2CCN(CC)CC2)cc1-c1nc2cc3ncn(Cc4cccc(OC)c4)c3cc2c(=O)[nH]1 | 117 to 118 |
| O=C(c1cccnc1)N1CCC(c2nc(-c3cnc(-c4ccccc4)nc3)c[nH]2)CC1 | 234 |
| COCC(C)Nc1cc(-c2ccnc(Nc3cccc(Cl)c3)n2)ccn1 (stereo not drawn) | 143 to 144 |
| CCOC(=O)c1c(Cn2cncn2)nc2sc3c(c2c1-c1ccc(OC)c(OC)c1)CCNC3 | 164 to 165 |
| COc1ccc(/C=C(/C#N)c2cccs2)cc1OC1CCCC1 | 100 to 101 |
| COc1ccc(NC(=O)CCCn2nnnc2C)cc1 | 132 to 134 |
| CS(=O)(=O)n1c(=NC(F)(F)F)oc2ccccc21 | 142 to 146 |
| CC(c1ccc(C(=O)N(C)C2CCCCC2)cc1)n1cnc2ccccc21 (stereo not drawn) | 142 to 145 |
| CN1C(=O)C2(COc3cc4c(cc32)OCCO4)c2c(C(=O)N3CCCC3)cccc21 (stereo not drawn) | 242 to 244 |
| CCNC(=O)CN(c1ccccc1)[C@@H]1c2cc(C#N)ccc2OC(C)(C)[C@@H]1O | 202 to 204 |
| O=C1NC(=O)C(Cc2ccc3c(c2)CCC(Cc2ccc(OCc4ccccc4)cc2)O3)S1 (stereo not drawn) | 118 to 120 |
| Nc1ccc(Cl)cc1C(=O)c1ccc(O)cc1 | 170 to 175 |
| COc1cccc(-c2nc(N)c(C#N)nc2-c2ccc(=O)n(C(C)C)c2)c1 | 192 |
| S=C(Nc1ccc(Cl)cc1)NC1CCCCC1 | 179 to 180 |
| COC(=O)c1nc(-c2ccc(C(F)(F)F)cc2)nc(N)c1Cl | 204 to 205 |
| NS(=O)(=O)c1cc(C(=O)O)cc(CCn2cccc2)c1Cl | 224 to 228 |

| Compound | melting point [°C] |
| --- | --- |
| CCCCC(=O)N(Cc1ccc(-c2ccccc2-c2nnnn2C(c2ccccc2)(c2ccccc2)c2ccccc2)cc1)C(C(=O)O)C(C)C (stereo not drawn) | 170 |
| O=c1[nH]c2ncc(-c3ccc(O)cc3)nc2n1C1CCCCC1 | 318 to 320 |
| CC1(C(=O)O)CCC2(C)CCC3(C)C(=CCC4C5(C)CCC(O)C(C)(C)C5CCC43C)C2C1 (stereo not drawn) | 329 to 331 |
| O=C(CCl)c1ccc(-c2ccc(SC(F)F)cc2)cc1 | 102 to 104 |
| Cc1cc(-c2ccc(Cl)c(Cl)c2)n(-c2ccc(S(N)(=O)=O)cc2)c1 | 136 to 138 |
| COC(C(=O)O)c1nn(-c2ccc(Br)cc2)c2c1CCCC2 (stereo not drawn) | 123 |
| CC(=O)NC(CCOC(C)=O)(CCOC(C)=O)CCc1ccccc1 | 73 to 74 |
| C#CCS(=O)(=O)c1cc([N+](=O)[O-])ccc1Cl | 238 to 241 |
| C#CCn1ccn(C)c1=O | 69 to 72 |
| Cc1[nH]c(=O)c(-c2csc(-c3ccnc(NCc4ccccn4)c3)n2)cc1C(=O)NCc1ccccn1 | > 260 |
| OCc1nc(-c2ccc3nc(-c4ccc(Cl)cc4)cn3c2)cs1 | 190 to 192 |
| Clc1nc(-c2ccccc2)no1 | 40 to 42 |
| COC(=S)NC[C@H]1CN(c2cc(F)c(N3CNC(=O)C3)c(F)c2)C(=O)O1 | 199 |
| CC(C)(C(=O)O)C(=O)NCc1cn(C(c2ccccc2)(c2ccccc2)c2ccccc2)cn1 | 174 to 175 |
| COc1ccc(C(=O)c2ccc(-c3nc4ccccc4o3)cc2)c(O)c1 | 177 to 179 |
| NC(=O)c1ncn2c1[C@@H]1CCN1C(=O)c1c(Br)cccc1-2 | 314 to 317 |
| COC(=O)c1ccc2oc(CCl)c(C)c2c1 | 114 to 115 |
| Cc1ccc(NC(=O)N[C@]2(C3CCCCC3)N=Cc3ccccc3N(C)C2=O)cc1N(C)c1nnn[nH]1 | 223 to 225 |
| CCN(C(=O)C1CC1)c1cccc(-c2ccnc3c(C(=O)c4ccco4)cnn23)c1 | 182 to 184 |
| CCn1c(N)c(-c2ncc[nH]2)c(=O)c2ccc(-c3ccc(C(C)C(=O)NCc4ccncc4)cc3)nc21 (stereo not drawn) | 186 |
| CC(=O)S[C@H]1C[C@@H](C(=O)Nc2cccc(C(=O)NS(C)(=O)=O)c2)N(C(=O)OCc2ccc([N+](=O)[O-])cc2)C1 | 240 to 242 |
| CSC(=S)NCc1ccc(O)cc1 | 90 to 91 |
| ClCc1coc(-c2ccc3oc(-c4ccccc4)nc3c2)n1 | 194 to 195 |
| CCc1cc(OCc2ccc(-c3ccccc3C(=O)OC)cc2)c2ccccc2n1 | 132 to 134 |
| CC(Cl)OC(=O)C=Cc1cc(N=C=O)ccc1Cl (stereo not drawn) | 48 to 50 |

| Compound | melting point [°C] |
| --- | --- |
| CCOC(=O)NN=Cc1c[nH]c(-c2ccccc2)n1 | 196 to 200 |
| CCOC(=O)C(=O)Cc1cc(Cl)c(Cl)cc1[N+](=O)[O-] | 92 to 94 |
| CCN1C(=O)Cc2cccc(OC(=O)CCl)c21 | 105 to 110 |
| CCCCN1CC2CN(c3ccc([N+](=O)[O-])cc3[N+](=O)[O-])CC(C1)C2(C)C | 119 |
| CCCn1nc2c(N)nc3ccccc3c2c1CCCc1cc(-c2ccccc2)no1 | 176 to 178 |
| C=CCc1ccc(C2=NNC(=O)CC2)cc1O | 175 to 178 |
| CC(CC(=O)O)c1ccc(-c2ccccc2)c(Cl)c1 (stereo not drawn) | 66 to 67 |
| Cc1ccc2c(Sc3cc(Cl)cc(Cl)c3)c(CC(N)=O)[nH]c2c1 | 197 |
| CCCC(=O)Nc1ccc(C(=O)Nc2ccc3cc(CN4CCCC4)cnc3c2C)cc1 | 192 to 194 |
| CC1(C)OC(c2cccc(S(C)(=O)=O)c2)=C(c2ccccc2)C1=O | 190 to 191 |
| CS(=O)(=O)c1ccc(-n2nc(C(F)(F)F)cc2-c2ccc(-c3cncs3)cc2)cc1 | 169 to 170 |
| COc1ccc(CN2CCC(c3cn(Cc4cccs4)c4cc(F)ccc34)CC2)cc1C(=O)O | 245 to 246 |
| Oc1cc(Cl)cc2c1CCC2 | 56 to 59 |
| O=S(=O)(C=Cc1ccc(F)cc1)Oc1ccccc1 | 108 |
| CCOC(=O)c1ccc(C#CC(O)c2cc(C(C)(C)C)cc(C(C)(C)C)c2O)cc1 (stereo not drawn) | 142 to 144 |
| COc1ccccc1OCCCCCOc1ccc(C#N)cc1 | 61 to 63 |
| COC(=O)c1ccc(N2CCC(N(C)Cc3ccccc3)CC2)cc1 | 103 to 104 |
| CCOC(=O)Cn1nc2ccc(NCCCN3CCC(OC(c4ccccc4)c4ccccc4)CC3)nn2c1=O | 137 to 139 |
| FCC1(CF)OC1(CBr)c1cc(C(F)(F)F)ccc1Cl (stereo not drawn) | 54 to 55 |
| O=C(Cc1cccc2ccccc12)Nc1cc(C2CC(NC(=O)C3CC3c3ccccc3)C2)[nH]n1 (stereo not drawn) | 140 |
| CC(=C1SC(=O)NC1=O)c1ccc(OCCOc2c(-c3ccc(F)c(F)c3)n(C)c3cc(Cl)ccc3c2=O)cc1 | 296 to 298 |
| COc1cc(N)ccc1S(=O)(=O)n1c(=O)n(C2CCCCCC2)c2cc(Cl)ccc21 | 219 |
| COC(=O)[C@H](CO)NC(=O)c1ncn2c1CN(C)C(=O)c1ccccc1-2 | 180 to 181 |
| CC(C)c1nn(-c2ccc(Cl)cn2)cc1CO | 135 to 136 |
| O=C(O)CCc1cc2cc(Cl)ccc2n1S(=O)(=O)c1ccccn1 | 189 |

| Compound | melting point [°C] |
| --- | --- |
| CC(=O)Nc1occ(C(C)(C)C)c1C#N | 135 |
| CCn1c(=O)c2cc(C(=O)O)cn2c2cc(Cl)ccc21 | 322 to 326 |
| CC(=NNc1nc(Cl)c(-c2c(F)cc(F)cc2F)c(NC(C)C(F)(F)F)n1)C(F)(F)F (stereo not drawn) | 205 to 207 |
| O=c1[nH]ncc2cc(Br)ccc12 | 280 to 283 |
| COC(=O)c1cc(Br)c(C#N)s1 | 102 to 103 |
| c1csc(-c2cnc(-c3cccs3)o2)c1 | 64.5 to 66 |
| CN1CCn2c1nc(C(=O)NCc1ccc(F)cc1)c(O)c2=O | 212 |
| CC(=O)Nc1ccc(S(=O)(=O)Nc2cc(Cl)nc(N3CCCC3)n2)cc1 | 229 to 233 |
| COC(=O)N[C@H](C(=O)N[C@@H](Cc1ccccc1)[C@@H](O)CN(Cc1ccc(-c2cncs2)cc1)NC(=O)OC(C)(C)C)C(C)C | 114 to 115 |
| O=C(O)CN(C(=O)Cc1ccc(Cl)c(Cl)c1)[C@H](CN1CC[C@H](O)C1)c1ccccc1 | 162 to 164 |
| Nc1cccc(-c2ccc(CCN3CCN(C(=O)c4ccco4)CC3)cc2)n1 | 152 to 154 |
| [N-]=[N+]=C1C(=O)Oc2ccc(S(=O)(=O)Cl)cc2C1=O | 185 |
| Nc1ncc(-c2ccc(C(F)(F)F)cc2)cc1C(F)(F)F | 168 |
| CN(C)c1c(SC(F)(F)F)c(C#N)nn1-c1c(Cl)cc(C(F)(F)F)cc1Cl | 110 to 111 |
| CC1=NN=C(c2ccc([N+](=O)[O-])cc2)c2ccc(Cl)cc2C1 | 227 to 228 |
| CCOC(NC(=O)c1snc(Cl)c1Cl)C(F)(F)F (stereo not drawn) | 99 to 101 |
| CCOC(=O)CCC(=O)Nc1n[nH]c2cc(C(F)(F)F)ccc12 | 248 |
| COc1cc(Nc2nccc(Nc3ccc(N4CCOCC4)cc3)n2)cc(OC)c1OC | 214 |
| O=C(CC(=O)c1ccc(O)cc1O)c1ccc(OCc2ccccc2)c(OCc2ccccc2)c1 | 245 to 247 |
| CC(C)Cn1c(C(=O)O)c(-c2ccc(F)cc2)c2cc(OCc3ccccc3)ccc2c1=O | 236 to 237 |
| Cc1ccc(S(=O)(=O)NC(=O)N2C(=O)C(C)N2C(c2ccccc2)c2ccccc2)cc1 (stereo not drawn) | 155 to 159 |
| CC(C)(C)Nc1nc(Cl)nc(Cl)n1 | 129 to 130 |
| O=C(O)CN1C(=O)C(=Cc2ccc(OCc3cccc(C(F)(F)F)c3)c(OCc3ccccc3)c2)SC1=S | 187 to 194 |
